Data on 17 compounds can be found in patent publication US8946273B2, “S-Triazolyl alpha-mercapto acetanilides as inhibitors of HIV reverse transcriptase” (priority 2011, dated 2015).

In one test the test system is wild type HIV-1. The experiment in a line: microbe, parasite or virus in culture. Format: cell-based, human immunodeficiency virus type 1 (HIV-1). Conditions: Human immunodeficiency virus 1, Hela-JC53, read-out: EC50 WT.
Test [1] addresses mutant HIV reverse transcriptases (Human immunodeficiency virus type 1, UniProt P12497, Y768C, cells depend on it). Format: cell-based.
For test [2], the target named is mutant HIV reverse transcriptases (Human immunodeficiency virus type 1, UniProt P12497, Y775L, cells depend on it). It is filed as cell-based.
Test [3] concerns the target T1, wild-type HIV reverse transcriptase (Human immunodeficiency virus type 1 group M subtype B, UniProt P04585).
T1 construct: wild-type and four mutant HIV reverse transcriptases
The experiment in a line: Activity on wild type reverse transcriptase (Table 1 IC50 WT). It is filed as biochemical.

On to `CCc1ccc(-n2c(Br)nnc2SCC(=O)Nc2ccc(C(=O)NCC3CCCO3)cc2Cl)c2ccccc12` (centres unmarked) [compound 125], for which the EC50 (with wild type HIV-1; in test [1]; in test [2]) was under 50 nM throughout. In test [3], the IC50 was under 50 nM.

Regarding `CCOC(=O)N1CCC(NC(=O)c2ccc(NC(=O)CSc3nnc(Br)n3-c3ccc(CC)c4ccccc34)c(Cl)c2)CC1` [compound 126], the EC50 (with wild type HIV-1; in test [1]; in test [2]) was under 50 nM in each case. Besides, the IC50 in test [3] is under 50 nM.

`CCc1ccc(-n2c(Br)nnc2SCC(=O)Nc2ccc(C(=O)NCCOC)cc2Cl)c2ccccc12` [compound 127]: the EC50 (in the test on wild type HIV-1; in test [1]; in test [2]) was under 50 nM each time. In test [3], this compound returned an IC50 of under 50 nM.

In the case of `CCc1ccc(-n2c(Br)nnc2SCC(=O)Nc2ccc(C(=O)NCC(C)O)cc2Cl)c2ccccc12` (centres unmarked) [compound 128], the EC50 (with wild type HIV-1; in test [1]; in test [2]) was under 50 nM each time. The same compound registered an IC50 in test [3] of under 50 nM.

On to `CC(C)OC(=O)CNC(=O)c1ccc(NC(=O)CSc2nnc(Br)n2-c2ccc(C3CC3)c3ccccc23)c(Cl)c1` [compound 129], for which the EC50 (with wild type HIV-1; in test [1]; in test [2]) was under 50 nM in each case. In addition, the IC50 in test [3] is under 50 nM.

`CCc1ccc(-n2c(Br)nnc2SCC(=O)Nc2ccc(C(=O)NCCC#N)cc2Cl)c2ccccc12` [compound 130]: the EC50 (in the test with wild type HIV-1; in test [1]; in test [2]) was under 50 nM throughout. The same compound showed an IC50 in test [3] of under 50 nM.

For the compound `CCNC(=O)c1ccc(NC(=O)CSc2nnc(Br)n2-c2ccc(CC)c3ccccc23)c(Cl)c1` [compound 131], the EC50 (in the test with wild type HIV-1; in test [1]; in test [2]) was under 50 nM throughout. For the same compound, in test [3], the IC50 was under 50 nM.

For `CCc1ccc(-n2c(Br)nnc2SCC(=O)Nc2ccc(C(=O)NCCO)cc2Cl)c2ccccc12` [compound 132], the EC50 (in the test with wild type HIV-1; in test [1]; in test [2]) was under 50 nM throughout. For the same compound, the IC50 in test [3] was under 50 nM.

As for `CCc1ccc(-n2c(Br)nnc2SCC(=O)Nc2ccc(C(=O)N3CCCCC3CO)cc2Cl)c2ccccc12` (centres unmarked) [compound 133], the EC50 (with wild type HIV-1; in test [1]; in test [2]) was under 50 nM throughout. This compound also came in with an IC50 in test [3] of under 50 nM.

`CCc1ccc(-n2c(Br)nnc2SCC(=O)Nc2ccc(C(=O)N3CCC(O)CC3)cc2Cl)c2ccccc12` [compound 134]: the EC50 (with wild type HIV-1; in test [1]; in test [2]) was under 50 nM in each case. The compound further registered an IC50 in test [3] of under 50 nM.

On to `CC[C@H](C)[C@H](NC(=O)c1ccc(NC(=O)CSc2nnc(Br)n2-c2ccc(C3CC3)c3ccccc23)c(Cl)c1)C(=O)O` [compound 135], for which the EC50 is under 50 nM in the test with wild type HIV-1, under 50 nM in test [1] and over 100 nM in test [2]. In test [3], this compound returned an IC50 of under 50 nM.

`CCc1ccc(-n2c(Br)nnc2SCC(=O)Nc2ccc(C(=O)NCC(C)(C)N)cc2Cl)c2ccccc12` [compound 136]: the EC50 (in the test with wild type HIV-1; in test [1]; in test [2]) was under 50 nM each time. In test [3], this compound yielded a half-maximal inhibitory concentration (IC50) of under 50 nM.

Take `CCc1ccc(-n2c(Br)nnc2SCC(=O)Nc2ccc(C(=O)NCCCCO)cc2Cl)c2ccccc12` [compound 137]: the EC50 (in the test with wild type HIV-1; in test [1]; in test [2]) was under 50 nM throughout. The compound also registered an IC50 in test [3] of under 50 nM.

For `CCc1ccc(-n2c(Br)nnc2SCC(=O)Nc2ccc(C(=O)N3CCC(CN)CC3)cc2Cl)c2ccccc12` [compound 138], the EC50 (with wild type HIV-1; in test [1]; in test [2]) was under 50 nM each time. The IC50 in test [3] was under 50 nM.

On to `CCc1ccc(-n2c(Br)nnc2SCC(=O)Nc2ccc(C(=O)NCC3CCNCC3)cc2Cl)c2ccccc12` [compound 139], for which the half-maximal effective concentration (EC50) in the test with wild type HIV-1 was under 50 nM; in test [1] it was under 50 nM; in test [2] it was 50 to 100 nM. The compound also gave an IC50 in test [3] of over 100 nM.

As for `CCc1ccc(-n2c(Br)nnc2SCC(=O)Nc2ccc(C(=O)N[C@@H](CO)C(=O)OC)cc2Cl)c2ccccc12` [compound 140], the EC50 (with wild type HIV-1; in test [1]; in test [2]) was under 50 nM in each case. The IC50 in test [3] was under 50 nM.

Regarding `Cc1cc(S(N)(=O)=O)ccc1NC(=O)C(C)Sc1nnc(Br)n1-c1c(C)ccc2ccccc12` (centres unmarked) [compound 142], the EC50 in the test on wild type HIV-1 was under 50 nM; in test [1], under 50 nM; in test [2], over 100 nM. The compound further registered an IC50 in test [3] of under 50 nM.
